Measured values taken from patent US6677347B2, “Sulfonamido ether substituted imidazoquinolines” (3M Innovative Properties Company, priority 2000, dated 2004).

test system: tumor necrosis factor (α); assay: Cytokine Induction in Human Cells: tumor necrosis factor (α) by ELISA or IGEN assay; type: cell-based; details: human PBMC, 18 to 24 hours incubation, lowest concentration found to induce tumor necrosis factor
Excerpt: (§1) An in vitro human blood cell system is used to assess cytokine induction. Activity is based on the measurement of interferon and tumor necrosis factor (α) (IFN and TNF, respectively) secreted into culture media as described by Testerman et. al. In “Cytokine Induction by the Immunomodulators Imiquimod and S-27609”, Journal of Leukocyte Biology, 58, 365-372 (September, 1995).
(§2) Whole blood from healthy human donors is collected by venipuncture into EDTA vacutainer tubes. Peripheral blood mononuclear cells (PBMC) are separated from whole blood by density gradient centrifugation using Histopaque®-1077. Blood is diluted 1:1 with Dulbecco's Phosphate Buffered Saline (DPBS) or Hank's Balanced Salts Solution (HBSS). The PBMC layer is collected and washed twice with DPBS or HBSS and resuspended at 4×10^6 cells/mL in RPMI complete. The PBMC suspension is added to 48 well flat bottom sterile tissue culture plates (Costar, Cambridge, Mass. or Becton Dickinson Labware, Lincoln Park, N.J.) containing an equal volume of RPMI complete media containing test compound.
(§3) The compounds are solubilized in dimethyl sulfoxide (DMSO). The DMSO concentration should not exceed a final concentration of 1% for addition to the culture wells. The compounds are generally tested at concentrations ranging from 30-0.014 μM.
(§4) The solution of test compound is added at 60 μM to the first well containing RPMI complete and serial 3 fold dilutions are made in the wells. The PBMC suspension is then added to the wells in an equal volume, bringing the test compound concentrations to the desired range (30-0.014 μM). The final concentration of PBMC suspension is 2×10^6 cells/mL. The plates are covered with sterile plastic lids, mixed gently and then incubated for 18 to 24 hours at 37° C. in a 5% carbon dioxide atmosphere.
(§5) Following incubation the plates are centrifuged for 10 minutes at 1000 rpm (˜200×g) at 4° C. The cell-free culture supernatant is removed with a sterile polypropylene pipet and transferred to sterile polypropylene tubes. Samples are maintained at −30 to −70° C. until analysis. The samples are analyzed for interferon (α) by ELISA and for tumor necrosis factor (α) by ELISA or IGEN Assay
Tumor necrosis factor (α) (TNF) concentration is determined using ELISA kits available from Biosource International, Camarillo, Calif. Alternately, the TNF concentration can be determined by Origen® M-Series Immunoassay and read on an IGEN M-8 analyzer from IGEN International, Gaithersburg, Md. The immunoassay uses a human TNF capture and detection antibody pair from Biosource International, Camarillo, Calif. Results are expressed in pg/mL.
(§6) The table below lists the lowest concentration found to induce interferon and the lowest concentration found to induce tumor necrosis factor for each compound.

For `COCCc1nc2c(N)nc3ccccc3c2n1CCOCCN(C)S(C)(=O)=O` [Example 3, N-(2-{2-[4-amino-2-(2-methoxyethyl)-1H-imidazo[4,5-c]quinolin-1-yl]ethoxy}ethyl)-N-methylmethanesulfonamide], which minimal effective concentration is on record?
The minimal effective concentration was 0.12 µM.

With `CCCCc1nc2c(N)nc3ccccc3c2n1CCOCCNS(=O)(=O)c1cccc2cccnc12` [Example 20] as the molecule, how does the minimal effective concentration read?
Its minimal effective concentration is 10 µM.

test system: not given; assay: not given; details: not given

With `Cc1nc2c(N)nc3ccccc3c2n1CCOCCN1CCCS1(=O)=O` [Example 60, 1-{2-[2-(1,1-Dioxidoisothiazolidin-2-yl)ethoxy]ethyl}-2-methyl-1H-imidazo[4,5-c]quinolin-4-amine] as the molecule, how does the melting point read?
Its melting point is 186 to 187 °C.

Which melting point does the source give for `COCCc1nc2c(N)nc3ccccc3c2n1CCOCCN(C)S(C)(=O)=O` [Example 3, N-(2-{2-[4-amino-2-(2-methoxyethyl)-1H-imidazo[4,5-c]quinolin-1-yl]ethoxy}ethyl)-N-methylmethanesulfonamide] here?
The melting point was 145 to 146.5 °C.

For `COCCc1nc2c(N)nc3ccccc3c2n1CCOCCN(C)S(=O)(=O)C(C)C` [Example 59, N-(2-{2-[4-amino-2-(2-methoxyethyl)-1H-imidazo[4,5-c]quinolin-1-yl]ethoxy}ethyl)-N-methylpropane-2-sulfonamide], which melting point is on record?
The melting point was 129.7 to 130.2 °C.

With `CCc1nc2c(N)nc3ccccc3c2n1CCOCCN` [Example 52, 1-[2-(2-aminoethoxy)ethyl]-2-ethyl-1H-imidazo[4,5-c]quinolin-4-amine] as the molecule, how does the melting point read?
Its melting point is 144 to 146 °C.

For `Cc1nc2c(N)nc3ccccc3c2n1CCOCCNS(C)(=O)=O` [Example 54, N-{2-[2-(4-amino-2-methyl-1H-imidazo[4,5-c]quinolin-1-yl)ethoxy]ethyl}methanesulfonamide], which melting point is on record?
The melting point was 152 to 155 °C.

With `CCCCc1nc2c(N)nc3ccccc3c2n1CCOCCN1CCCS1(=O)=O` [Example 5, 2-Butyl-1-{2-[2-(1,1-dioxidoisothiazolidin-2-yl)ethoxy]ethyl}-1H-imidazo[4,5-c]quinolin-4-amine] as the molecule, how does the melting point read?
Its melting point is 152 to 154 °C.

With `COCCc1nc2c(N)nc3c(c2n1CCOCCNS(C)(=O)=O)CCCC3` [Example 2, N-(2-{2-[4-amino-2-(2-methoxyethyl)-6,7,8,9-tetrahydro-1H-imidazo[4,5-c]quinolin-1-yl]ethoxy}ethyl)methanesulfonamide] as the molecule, how does the melting point read?
The melting point was 151 to 153 °C.

With `CCOCc1nc2c(N)nc3ccccc3c2n1CCOCCNS(C)(=O)=O` [Example 57, N-(2-{2-[4-amino-2-(ethoxymethyl)-1H-imidazo[4,5-c]quinolin-1-yl]ethoxy}ethyl)methanesulfonamide] as the molecule, how does the melting point read?
The melting point was 152 to 155 °C.

For `Cc1nc2c(N)nc3ccccc3c2n1CCOCCNS(=O)(=O)C(C)C` [Example 55, N-{2-[2-(4-amino-2-methyl-1H-imidazo[4,5-c]quinolin-1-yl)ethoxy]ethyl}propane-2-sulfonamide], which melting point is on record?
Its melting point is 172 to 175 °C.

For `COCCc1nc2c(N)nc3c(c2n1CCOCCN(C)S(C)(=O)=O)CCCC3` [Example 4, N-(2-{2-[4-amino-2-(2-methoxyethyl)-6,7,8,9-tetrahydro-1H-imidazo[4,5-c]quinolin-1-yl]ethoxy}ethyl)-N-methylmethanesulfonamide], which melting point is on record?
Its melting point is 115.3 to 117.8 °C.

Which melting point does the source give for `Cc1nc2c(N)nc3ccccc3c2n1CCOCCN` [Example 51, 1-[2-(2-aminoethoxy)ethyl]-2-methyl-1H-imidazo[4,5-c]quinolin-4-amine] here?
Its melting point is 155 to 157 °C.

Which melting point does the source give for `CCc1nc2c(N)nc3ccccc3c2n1CCOCCNS(C)(=O)=O` [Example 56, N-{2-[2-(4-amino-2-ethyl-1H-imidazo[4,5-c]quinolin-1-yl)ethoxy]ethyl}methanesulfonamide] here?
The melting point was 169 to 171 °C.

Which melting point does the source give for `CCOCc1nc2c(N)nc3ccccc3c2n1CCOCCNS(=O)(=O)C(C)C` [Example 58, N-(2-{2-[4-amino-2-(ethoxymethyl)-1H-imidazo[4,5-c]quinolin-1-yl]ethoxy}ethyl)propane-2-sulfonamide] here?
The melting point was 139 to 142 °C.

For `COCCc1nc2c(N)nc3ccccc3c2n1CCOCCNS(C)(=O)=O` [Example 1, N-(2-{2-[4-amino-2-(2-methoxyethyl)-1H-imidazo[4,5-c]quinolin-1-yl]ethoxy}ethyl)methanesulfonamide], which melting point is on record?
The melting point was 114 to 117 °C.

test system: interferon (α); assay: Cytokine Induction in Human Cells: interferon (α) by ELISA; type: cell-based; details: human PBMC, 18 to 24 hours incubation, lowest concentration found to induce interferon
Excerpt: as §1, §2, §3, §4, §5
Interferon (α) concentration is determined by ELISA using a Human Multi-Species kit from PBL Biomedical Laboratories, New Brunswick, N.J. Results are expressed in pg/mL.
as §6

With `COCCc1nc2c(N)nc3ccccc3c2n1CCOCCN(C)S(C)(=O)=O` [Example 3, N-(2-{2-[4-amino-2-(2-methoxyethyl)-1H-imidazo[4,5-c]quinolin-1-yl]ethoxy}ethyl)-N-methylmethanesulfonamide] as the molecule, how does the minimal effective concentration read?
The minimal effective concentration was 0.01 µM.

For `CCCCc1nc2c(N)nc3ccccc3c2n1CCOCCNS(=O)(=O)c1cccc2cccnc12` [Example 20], which minimal effective concentration is on record?
The minimal effective concentration was 1 µM.
